Results taken from patent US7858578B2, “Methods of inducing neuronal growth by a Fucose-α(1-2) galactose (fuc-α(1-2) gal) moiety and a lectin” (California Institute of Technology, priority 2004, dated 2010).

What was measured:
hippocampal neurons [1] = experiment: Binding of biotinylated probe to cultured hippocampal neurons (streptavidin-AlexaFluor 488 imaging); type: cell-based, rat; details: 3 mM, 10 μM PAO; for labeling of neurons after de-lipidation: neurons de-lipidated with MeOH/CHCl3; for binding to hippocampal neurons: 1 h, E18 neurons 23 days in vitro
Experimental: Hippocampal neurons were cultured using a procedure modified from Goslin and Banker, in Culturing Nerve Cells, Banker, G., Goslin, K., Eds., pp. 251-281, MIT Press: Cambridge, Mass. 1991. Briefly, the hippocampi of embryonic day 18 (E18) rats were dissected and transferred to 4.5 mL of ice-cold Calcium and Magnesium Free-Hank's Balanced Salt Solution (CMF-HBSS). Trypsin (2.5%, no EDTA) was added to 5 mL, and the tissue was incubated for 15 min at 37° C. The trypsin solution was removed and the tissue sample washed three times with 5 mL of CMF-HBSS. Cells were then dissociated from the tissue in 1 mL of CMF-HBSS by passing through a P1000 pipet tip twenty times. The cells were counted, diluted into Minimal Eagle's Medium (MEM) plus 10% fetal bovine serum, and seeded on poly-DL-ornithine-coated glass coverslips (Carolina Biological) at a density of 75 cells/mm2 (100 μL/coverslip) for 30 min. After this time, 500 μL of supplemented Neurobasal medium (47.5 mL Neurobasal medium without Lglutamine; 0.5 mL L-glutamine (200 mM); 0.5 mL penicillin/streptomycin (10,000 U/mL); 0.5 mL antibiotic-antimycotic (100× stock), 1.0 mL B-27 serum-free supplement (50× stock); 50 μL of 0.5 M kynurenic acid in 1 N NaOH) was added to each coverslip. The use of kynurenic acid to block glutamate receptor ion channels and enhance neuronal health and survival is standard protocol for neuronal cultures. Id. The cultures were maintained in 5% CO2 at 37° C. in supplemental Neurobasal medium.
After 23 days in culture, the medium was replaced, and neurons were treated with the endocytosis inhibitor phenylarsine oxide (PAO; 4 μL in DMSO, final concentration 10 μM) (Nouel, D., et al., J. Neurosci. 17:1795-1803 (1997)) and either compound III (24 μL in PBS, final concentration 3 mM), or biotin (24 μL in PBS, final concentration 3 mM), in supplemented Neurobasal medium (400 μL final volume) for 1 h at 37° C., 5% CO2. After 1 h, neurons were rinsed 2 times with PBS, fixed in 4% paraformaldehyde for 20 min at rt, washed 2 times with PBS, permeabilized in 0.3% Triton X-100 for 5 min at rt, and washed 2 times with PBS. Non-specific binding was blocked with 3% BSA for 1 h at rt and then rinsed one time with PBS. Compound III was detected with streptavidin conjugated to AlexaFluor 488 (1:200, Molecular Probes). Dye-conjugated streptavidin was added in 3% BSA for 1 h at 37° C. and the excess reagent washed off 5 times with PBS. Coverslips were then mounted onto slides with Vectashield, sealed, and imaged using confocal laser microscopy. Results can be seen in FIG. 2.
De-lipidation was performed on some samples following the protocol of Yavin, E. et al., J. Neurosci. Res. 9:229-237 (1983). Briefly, after 23 days in culture, cells were rinsed once with PBS then exposed to MeOH/CHCl3 (½ by vol.) for 15 min at −80° C. This procedure fixes the cells to the coverslip and extracts cellular lipids. After removing the MeOH/CHCl3 mixture, coverslips were dried at rt then incubated with 3% BSA for 1 hr at rt. After one rinse with PBS, neurons were treated with PAO and the procedure described above was followed.

hippocampal neurons [2] = experiment: Neurite outgrowth of hippocampal neurons treated with carbohydrate-PAA conjugates; type: cell-based, rat; details: FIG. 4B, concentration and valency series
Experimental: Hippocampal neurons were cultured using a procedure modified from Goslin and Banker, in Culturing Nerve Cells, Banker, G., Goslin, K., Eds., pp. 251-281, MIT Press: Cambridge, Mass. 1991. Briefly, the hippocampi of embryonic day 18 (E18) rats were dissected and transferred to 4.5 mL of ice-cold Calcium and Magnesium Free-Hank's Balanced Salt Solution (CMF-HBSS). Trypsin (2.5%, no EDTA) was added to 5 mL, and the tissue was incubated for 15 min at 37° C. The trypsin solution was removed and the tissue sample washed three times with 5 mL of CMF-HBSS. Cells were then dissociated from the tissue in 1 mL of CMF-HBSS by passing through a P1000 pipet tip twenty times. The cells were counted, diluted into Minimal Eagle's Medium (MEM) plus 10% fetal bovine serum, and seeded on poly-DL-ornithine-coated glass coverslips (Carolina Biological) at a density of 75 cells/mm2 (100 μL/coverslip) for 30 min. […]
The association of Fucα(1-2)Gal with potential lectins was studied to determine if it would stimulate neuronal growth. […] The cultures were incubated in 5% CO2 at 37° C. and analyzed. […]
For each experiment, 50 randomly selected cells were analyzed per coverslip using similar quantitative analysis techniques reported by Schmid et al., J. Neurosci. […] Briefly, only neurites longer than ˜10 μm and not in contact with other cells were measured using NIH Image 1.62 software. […]

C[C@@H]1O[C@@H](O[C@H]2[C@H](OCCOCCNC(=O)CCCC[C@@H]3SC[C@@H]4NC(=O)N[C@@H]43)O[C@H](CO)[C@H](O)[C@@H]2O)[C@@H](O)[C@H](O)[C@@H]1O [Compound III]
labeling of neurons after de-lipidation (hippocampal neurons [1]): labeling was not diminished
labeling of neurons after de-lipidation (hippocampal neurons [1]; listed as probe III): does not alter the labeling
binding to hippocampal neurons (hippocampal neurons [1]): binds
binding to hippocampal neurons (hippocampal neurons [1]; listed as compound III): binding of compound III to the cell body and neurite processes
neurite outgrowth activity (hippocampal neurons [2]): only modest activity
